Results: US20100048530A1, “New 2-Azetidinone Derivatives As Cholesterol Absorption Inhibitors For The Treatment Of Hyperlipidaemic Conditions” (ASTRAZENECA AB, priority 2005, published 2010)

Test system: C57BL/6 female mice
Assay: In vivo testing of cholesterol absorption inhibitors (A)
Conditions: 0.2 μmol/kg, gavage, procedure A
Protocol: In Vivo Testing of Cholesterol Absorption Inhibitors (A)
C57BL/6 female mice were maintained on regular chow diet and housed in individual cages to collect faeces. Mice were fasted for 3 hours and then gavaged with vehicle or compound. Half an hour later the mice were gavaged with radiolabelled cholesterol. Six hours after the ^14C-cholesterol gavage blood samples were taken via the tail and plasma prepared to determine how much cholesterol were absorbed. 24 hours after the gavage of ^14C-cholesterol the mice were bled and plasma were prepared for analysis. Faeces were collected for 24 hours to assess absorption efficiency.

## O=C(O)CNC(=O)[C@@H](CC1CCCCC1)NC(=O)CNC(=O)COc1ccc([C@@H]2[C@@H](SCC(O)c3ccc4c(c3)OCCO4)C(=O)N2c2ccc(F)cc2)cc1 (stereo partly drawn) [Example 1, N-({4-[(2R,3R)-3-{[2-(2,3-dihydro-1,4-benzodioxin-6-yl)-2-hydroxyethyl]thio}-1-(4-fluorophenyl)-4-oxoazetidin-2-yl]phenoxy}acetyl)glycyl-3-cyclohexyl-D-alanylglycine]
  inhibition of 14C-cholesterol absorption: 43%
